Where “and” joins values, the source holds several entries; their conditions need not be identical. Identical values can stand only once.
Experiments:
[1] = system: NAD(P)H quinone oxidoreductase 1 (Nqo1); assay: RT-qPCR of Nqo1 mRNA in MDCK cells with or without A/PR/8/34 virus; format: cell-based, canine; conditions: 12.5uM, MDCK, relative to virus - DMSO; for NQO1 Canis lupus mRNA, ave: ave of #1-3 exp; for NQO1 Canis lupus mRNA, individual replicates: replicates 1-3 of #1, #2, #3 exp, listed as Cyclobakuchiol D
Nrf2 = Nrf2 reporter assay (dual luciferase system) in MDCK cells; format: cell-based, canine
Experimental: An Nrf2 reporter assay based on the dual luciferase system was performed as previously described. The plasmid pNQO1-ARE (antioxidant response element)-Fluc, provided by Yamamoto M., expressed a Firefly luciferase gene driven by Nrf2 activation, while the plasmid pRL-TK-Rluc vector (Promega, CA, USA) expressed a Renilla luciferase gene driven by the herpes simplex viral thymidine kinase promoter as an internal control. MDCK cells were seeded in a 24-well plate at 1 × 10^5 cells/well and transfected with pNQO1-ARE-luc (0.25 μg) and pRL-TK-Rluc (0.25 μg). At 24 h post-transfection, the cells were treated with 12.5 μM cyclobakuchiols A–D in the infection medium at 37°C under 5% CO2. DMSO (0.125%) and 12.5 μM 1 were used as negative and positive controls, respectively. Total RNA was extracted from the MDCK cell lysates after 24 h of incubation. The levels of Firefly and Renilla luciferase mRNAs were analyzed by RT-qPCR and normalized to that of β-actin mRNA.

A/PR/8/34 virus [2] = assay: RT-qPCR of viral mRNAs (NP, NS1, PA, PB1, PB2, M2) in infected MDCK cells; format: cell-based, influenza A H1N1 virus
[3] = system: canine interferon-β (Ifn-β); assay: RT-qPCR of Ifn-β mRNA in MDCK cells with or without A/PR/8/34 virus; format: cell-based; conditions: 12.5uM, relative to virus - DMSO; for MDCK IFN-b mRNA, ave: ave of #1-3 exp; for MDCK IFN-b mRNA, individual replicates: replicates 1-3 of #1, #2, #3 exp, listed as Cyclobakuchiol D
A/PR/8/34 virus [4] = assay: Immunofluorescence staining of viral NP in influenza A virus-infected MDCK cells; conditions: for NP/DAPI (%) ave: average of 9 wells
Experimental: (§1) MDCK cells were seeded on a 96-well plate at 1 × 10^4 cells/well. […] Each mixture was added to the cells at 37°C in the presence of 5% CO2. […] After influenza A viral infection for 24 h, the cells were fixed with 4% paraformaldehyde in phosphate-buffered saline (PBS) for 30 min at 4°C and subsequently permeabilized by the addition of 0.3% Triton X-100 for 20 min at 25°C. A mouse primary antibody was used to detect the NP of A/PR/8/34 or A/WSN/33 viruses (FluA-NP 4F1; SouthernBiotech, AL, USA). Alexa Fluor488-conjugated goat anti-mouse IgG (H + L) antibody (Thermo Fisher Scientific) was used as the secondary antibody. Cell nuclei were then stained using diamidino-2-phenylindole (DAPI) (Thermo Fisher Scientific). Wells were photographed using a fluorescence microscope (BIOREVO BZ-X700; Keyence, Osaka, Japan). The proportion of influenza A NP-positive cells per DAPI-positive cells was calculated based on measurements recorded using BZ-X Analyzer software (Keyence).

A/WSN/33 virus [5] = assay: as above; conditions: WSN
Experimental: as §1

A/WSN/33 virus [6] = assay: Influenza A viral growth assay (viral titer of culture media); format: cell-based, influenza A H1N1 virus; conditions: A/WSN/33 (WSN), 12.5uM, average of #1-3 exp (n=9)
A/PR/8/34 virus [7] = format: cell-based; conditions: 12.5 μM, 24h WB
A/PR/8/34 virus [8] = assay: Influenza A viral growth assay (viral titer of culture media); format: cell-based, influenza A H1N1 virus; design: viral titer of culture media, individual replicate / viral titer of culture media, ave: unit not given here; conditions: A/PR/8/34 (PR8), 12.5uM, average of #1-3 exp (n=9)
[9] = MDCK cells, PR8 virus, relative to DMSO (about 1), ave of #1-3 exp (9 values)
[10] = MDCK cells, PR8 virus, relative to DMSO, replicates 1-3 of #1, #2, #3 exp, listed as Cyclobakuchiol D
[11] = single experiment, listed as cyclo D

In the case of `C=C[C@]1(C)CCC(C(C)(C)O)C(c2ccc(O)cc2)C1` (stereo in doubt) [cyclobakuchiol D], the “NQO1 Canis lupus mRNA, ave” value ([1]; virus + (PR8)) is reported as 1.2349, the “NQO1 Canis lupus mRNA, individual replicates” value ([1]; virus + (PR8)) is reported as 1.289 and 1.376 and 1.34 and 1.5629 and 0.8611 and 0.8923 and 0.9522 and 1.447 and 1.3929 and the “NQO1 Canis lupus mRNA, ave” value ([1]; virus -) is reported as 1.178. The “NQO1 Canis lupus mRNA, individual replicates” value ([1]; virus -) was 1.099 and 1.305 and 1.308 and 1.291 and 1.087 and 1.132 and 1.031 and 1.075 and 1.276, the “Nrf2 activation (reporter assay) in contrast to DMSO” value (Nrf2; 12.5 μM, 24 h, MDCK cells) was “did not induce Nrf2 activation” and the “pNQO1-ARE-Luc NRF2 reporter assay, ave” value (Nrf2; 12.5uM, relative to DMSO trans+, ave of #1-3 exp) was 1.2008. The “pNQO1-ARE-Luc NRF2 reporter assay, individual replicates” value (Nrf2; 12.5uM, relative to DMSO trans+, two values each of #1, #2, #3 exp, listed as Cyclobakuchiol D) was 1.181 and 1.006 and 1.453 and 1.158 and 1.274 and 1.134, the “PR8 NP gene expression qPCR, ave” value (A/PR/8/34 virus [2]; MDCK PR8, NP mRNA, relative (DMSO about 1), average of #1-3 exp (n=9)) was 0.07153 and the “PR8 NP gene expression qPCR, individual replicate” value (A/PR/8/34 virus [2]; MDCK PR8, NP mRNA, relative (DMSO about 1), replicates of #1-3 exp, listed as Cyclobakuchiol D) was 0.03886 and 0.05994 and 0.05606 and 0.05458 and 0.125 and 0.1151 and 0.1425 and 0.0275 and 0.02409. For the same compound, the “PR8 NS1 gene expression qPCR, ave” value (A/PR/8/34 virus [2]; MDCK PR8, NS1 mRNA, relative (DMSO about 1), average of #1-3 exp (n=9)) was 0.04518, the “PR8 NS1 gene expression qPCR, individual replicate” value (A/PR/8/34 virus [2]; MDCK PR8, NS1 mRNA, relative (DMSO about 1), replicates of #1-3 exp, listed as Cyclobakuchiol D) was 0.02832 and 0.04013 and 0.04518 and 0.04355 and 0.06568 and 0.06468 and 0.07589 and 0.02316 and 0.02 and the “PR8 PA gene expression qPCR, ave” value (A/PR/8/34 virus [2]; MDCK PR8, PA mRNA, relative (DMSO about 1), average of #1-3 exp (n=9)) was 0.04749. The “PR8 PA gene expression qPCR, individual replicate” value (A/PR/8/34 virus [2]; MDCK PR8, PA mRNA, relative (DMSO about 1), replicates of #1-3 exp, listed as Cyclobakuchiol D) was 0.03007 and 0.03859 and 0.03028 and 0.03293 and 0.08115 and 0.07941 and 0.08873 and 0.02395 and 0.02226, the “PR8 M2 gene expression qPCR, ave” value (A/PR/8/34 virus [2]; [9]) was 0.04919 and the “PR8 PB1 gene expression qPCR, ave” value (A/PR/8/34 virus [2]; [9]) was 0.04173. For the same compound, the “PR8 PB2 gene expression qPCR, ave” value (A/PR/8/34 virus [2]; [9]) was 0.05311, the “PR8 M2 gene expression qPCR, individual replicates” value (A/PR/8/34 virus [2]; [10]) was 0.03101 and 0.05567 and 0.03306 and 0.04539 and 0.07613 and 0.07839 and 0.08038 and 0.02111 and 0.02153 and the “PR8 PB1 gene expression qPCR, individual replicates” value (A/PR/8/34 virus [2]; [10]) was 0.03148 and 0.02292 and 0.01741 and 0.02275 and 0.0784 and 0.07991 and 0.07514 and 0.02623 and 0.02132. For the same compound, the “PR8 PB2 gene expression qPCR, individual replicates” value (A/PR/8/34 virus [2]; [10]) was 0.03118 and 0.04821 and 0.03936 and 0.04228 and 0.08338 and 0.07806 and 0.1008 and 0.0302 and 0.02454, the “MDCK IFN-b mRNA, ave” value ([3]; virus +) was 17.4654 and the “MDCK IFN-b mRNA, individual replicates” value ([3]; virus +) was 2.418 and 33.9435 and 15.7832 and 32.7435 and 6.882 and 51.6835 and 8.73 and 2.955 and 2.05. The “MDCK IFN-b mRNA, ave” value ([3]; virus -) was 2.784, the “MDCK IFN-b mRNA, individual replicates” value ([3]; virus -) was 0.8154 and 7.71 and 7.894 and 3.201 and 1.087 and 1.374 and 1.346 and 0.9591 and 0.6654 and the “NP/DAPI (%) ave” value (A/PR/8/34 virus [4]; A/PR/8/34, 3.13 uM) was 8.962%. For the same compound, the “NP (NP-positive cell count)” value (A/PR/8/34 virus [4]; A/PR/8/34, 3.13 uM, single well, listed as Cyclobaku. D) was 26 and 38 and 24 and 36 and 32 and 28 and 35 and 30, the “NP/DAPI (%) ave” value (A/PR/8/34 virus [4]; A/PR/8/34, 6.25 uM) was 5.506% and the “NP/DAPI (%) ave” value (A/PR/8/34 virus [4]; A/PR/8/34, 12.5 uM) was 1.974%. The “NP/DAPI (%) ave” value (A/PR/8/34 virus [4]; A/PR/8/34, 25 uM) was 1.609%, the IC50 (A/PR/8/34 virus [4]; Influenza A virus, PR/8, MDCK, read-out: half maximal (50%) inhibitory concentration (IC50)) was 8.8 ± 2.4 µM and the “NP/DAPI (%) ave” value (A/WSN/33 virus [5]; 3.13uM, ave of 9 values (3 exp)) was 30.4806%. For the same compound, the “NP/DAPI (%) ave” value (A/WSN/33 virus [5]; 6.25uM, ave of 9 values (3 exp)) was 29.9222%, the “NP/DAPI (%) ave” value (A/WSN/33 virus [5]; 12.5uM, ave of 9 values (3 exp)) was 34.4723% and the “NP/DAPI (%) ave” value (A/WSN/33 virus [5]; 25uM, ave of 9 values (3 exp)) was 38.5623%. The “NP/DAPI (%) ave” value (A/WSN/33 virus [5]; ave summary, 3.13%) was 30.4806%, the “NP/DAPI (%) ave” value (A/WSN/33 virus [5]; ave summary, 6.25%) was 29.9222% and the “NP/DAPI (%) ave” value (A/WSN/33 virus [5]; ave summary, 12.50%) was 34.4723%. For the same compound, the “NP/DAPI (%) ave” value (A/WSN/33 virus [5]; ave summary, 25%) was 38.5623%, the “viral titer of culture media, ave” value (A/WSN/33 virus [6]; 12h) was 10344.4 and the “viral titer of culture media, ave” value (A/WSN/33 virus [6]; 24h) was 25855556. For the same compound, the “viral titer of culture media, ave” value (A/WSN/33 virus [6]; 48h) was 191111111, the “viral titer of culture media, ave” value (A/WSN/33 virus [6]; 72h) was 140200000 and the NP/b-actin ave (A/PR/8/34 virus [7]; average of 3 experiments) was 0.8053. For the same compound, the NS1/b-actin ave (A/PR/8/34 virus [7]; average of 3 experiments) was 0.5049, the “NP mean (western blot signal intensity, ImageJ)” value (A/PR/8/34 virus [7]; [11]) was 94.385 and 99.104 and 119.4 and the NP/b-actin (A/PR/8/34 virus [7]; [11]) was 0.9145 and 0.7726 and 0.7289. The NS1/b-actin (A/PR/8/34 virus [7]; [11]) was 0.4761 and 0.5377 and 0.5009, the “NS1 mean (western blot signal intensity, ImageJ)” value (A/PR/8/34 virus [7]; [11]) was 65.696 and 68.111 and 62.157 and the “viral titer of culture media, ave” value (A/PR/8/34 virus [8]; 12h) was 23333.3. For the same compound, the “viral titer of culture media, ave” value (A/PR/8/34 virus [8]; 24h) was 46666.7, the “viral titer of culture media, ave” value (A/PR/8/34 virus [8]; 48h) was 42222.2 and the “viral titer of culture media, ave” value (A/PR/8/34 virus [8]; 72h) was 51111.1.

From PMC7997032, “Organic synthesis and anti-influenza A virus activity of cyclobakuchiols A, B, C, and D” (PLoS ONE, 2021)
